These are literature values, as cited in patent US8541371B2, “Treatment of conditions related to cecal ligation shock” (The Regents of The University of California, priority 2009, dated 2013).

This data set deals with shock. Conditions: shock patients, approved treatment.

Take drotrecogin alfa (activated) [XIGRIS]: the survival benefit entry is “minor but confirmed survival benefit”.
